# Values of other authors in patent publication US20140343147A1, “NUTRITIONAL SUPPLEMENT FOR THE ENHANCEMENT OF MUSCLE PERFORMANCE AND RECOVERY AND METHODS OF USE THEREOF” (Maximum Human Performance, LLC, priority 2011, published 2014).
# What was measured:
# humans = conditions: daily dose
# rats = conditions: daily dose
# mice = conditions: iv. in mice, Na-salt
# [1] = colorless crystals; water and alcohol
SMILES,luteinizing hormone levels (humans),testosterone levels (humans),luteinizing hormone levels (rats),testosterone levels (rats),LD50 (mice) [mg/kg],solubility [1]
N[C@H](CC(=O)O)C(=O)O [D-aspartic acid],increase,increase,increase,increase,–,–
"CC(C)CC(O)C(=O)O (stereo not drawn) [HICA, 2-hydroxy-4-methylvaleric acid]",–,–,–,–,650,soluble in water and alcohol
